Experiments:
[1] = Encapsulation efficiency, RiboGreen RNA assay (Method A); assay type: physicochemical; settings: LNP formulated by Method A
Procedure: (§1) The synthesized lipids were tested in term of in vitro transfection efficacy and toxicity on HeLa cells. In order to perform the mentioned biological tests, appropriate LNPs had to be formulated from the synthesized lipids. The formulation technique was different in Method A and B. The particle size, PDI and zeta potential of resulting LNPs were determined by means of Dynamic Light Scattering technique (DLS). Prior to biological testing the encapsulation efficiency (EE) of the loaded LNPs was determined by using RiboGreen RNA assay. In case of Method A Luciferase-mRNA while in case of Method B GFP-mRNA was transfected into the cells. In parallel with the transfection experiments, toxicity of the investigated LNPs was determined, in case of Method A resazurin assay while in case of Method B MTT assay was used. In the case of some lipids, the apparent pKa in LNPs was determined by using TNS titration based on the method described: Angew Chem Int Ed Engl. 2012, 51 (34), 8529-8533, doi: 10.1002/anie.201203263).
• 1. Preparation of sample stock solutions: In the top row of the 96-well plate (Row A in the plate), add 297 μL of TE buffer pH 7.4 to a single well for each sample plus a single well for a PBS blank using a multichannel pipette. • 2. Add 3 μL of sample (at 0.5 mg/ml) to these wells for a final volume of 300 μL. Add 3 μL of PBS to the blank well. Pipette to mix. This is your stock solution for each sample. The final RNA concentration of these stock solutions should be approximately 4-7 μg/mL. • 3. mRNA-LNP sample setup: • a. Add 50 μL of TE buffer pH 7.5 to the two wells directly below each sample (Rows B and C in the plate). • b. Add 50 μL of sample stock solution from Row A into the wells in Rows B and C (this assay is run in duplicate. All liquid handling should be done using a multichannel pipette). • c. Add 50 μL of Triton buffer to the wells in Rows D and E (in the plate) below each sample. • d. Add 50 μL of sample stock solution from Row A into the wells in Rows D and E. • 4. RiboGreen RNA standard curve setup: Dilute the RNA standard to produce an RNA stock at a final concentration of 20 μg/mL in TE buffer pH 7.4. The final volume should be 150 μL. Set up a standard curve (in duplicate) as using the RNA stock (20 μg/mL siRNA), TE buffer pH 7.5, and Triton buffer according the Table 2 below.
• 5. Once samples and standard curve are plated, incubate the plate at 37° C. for 10 min to lyse mRNA-LNP in the presence of Triton X-100. • 6. Meanwhile, prepare RiboGreen Solution: Sum the total number of sample wells and standard curve wells. Add three to this number, and multiply the total by 100. This is the total volume, in μL, of RiboGreen Solution needed for this assay. In a 15 mL RNAse-free Falcon tube, dilute the RiboGreen Reagent 1:100 into TE buffer pH 7.5 to the total volume calculated. • 7. Addition of RiboGreen Solution and sample readings: Remove a 96-well plate from 37° C. incubator; let it cool to room temperature as RiboGreen binding is somewhat temperature dependent. Add 100 μL of RiboGreen Solution to each well. Pop any air bubbles with a needle. Read using fluorescent plate reader (excitation=480, emission=525). • 8. Sample analysis: Use the data generated by the RiboGreen standard curve to calculate the concentration of mRNA. Transfection Efficiency with Luciferase-mRNA (Method A)

HeLa cells = experiment: Transfection efficiency with Luciferase-mRNA, Nano-Glo assay (Method A); assay type: cell-based; settings: 100 ng Luciferase (SecNLuc) mRNA, 24 h, luminescence
Procedure: as §1
• 1. Prepare mRNA solution by adding 100 ng mRNA (SecNLuc, #P009024, RiboPro) to 5 μl Opti-MEM • a. multiply by number of wells, include different concentrations and add 10% extra • b. a standard set-up we use is 100 ng-50 ng-10 ng mRNA/well in triplicate, which would need 528 ng mRNA (includes 10% extra)
• 2. (If applicable) Prepare different concentrations in Opti-MEM (for instance 100/50/10 ng). • 3. Add 10 μl to each well and mix carefully by pipetting. • 4. Mix by swirling the plate horizontally at modest speed. Reverse in direction 3 times. • 5. Incubate for 24 hours (incubator).
This protocol is applied to measure luciferase activity for secreted NanoLuc and is based on the protocol by Promega (Nano-Glo® Luciferase Assay System #N1110-1150). The protocol is designed for a 384-wells plate, but volumes can be changed accordingly for other plates.
• 1. Plate cells (HeLa) in 96-well plate, grow until 80% confluent and transfect with SecNanoLuc mRNA and incubate for the desired period (24 h). • 2. After incubation, the translated protein is accumulated in the medium. Transfer medium to a new plate or tubes • 3. Transfer 12 μl of each sample to a black-walled, clear-bottom 384-well plate • a. Black-walled plates are important to prevent shine-through of luminescence from other wells; alternatively, multiple wells between samples can be left empty • 4. Set-up plate reader • 5. Prepare the desired amount of Nano-Glo® Luciferase Assay Reagent by combining one volume of Nano-Glo® Luciferase Assay Substrate with 50 volumes of Nano-Glo® Luciferase Assay Buffer • a. composition: 100 mM MES pH 6; 1 mM EDTA; 0.5% NP-50; 150 mM KCl; 1 mM DTT; 35 mM Thiourea • b. Briefly spin tubes containing substrate in a microcentrifuge before use • 6. Add and mix (by pipetting) 12 μl Nano-Glo® Luciferase Assay Reagent per well • a. Wait approximately 3 minutes before measuring luminescence. […] Measure luminescence in plate reader using standard protocol luciferase (this includes mixing sample in plate reader)

CCCCCCCCC(CCCCCC)C(=O)OCCCCCCN(CCCCO)CCCCCCOC(=O)C(CCCCCC)CCCCCCCC (stereo not drawn) [ALC-0315, reference compound]
EE (%) [1]: 94%
Transfection* (Method A = 100 ng mRNA) (HeLa cells): 836793

CCCCCCCC[Si](C)(C)OC(CCCCCCC)OCCCCCCN(CCCCO)CCCCCCOC(CCCCCCC)O[Si](C)(C)CCCCCCCC (stereo not drawn) [Example 102, 5-(6-((1-((dimethyl(octyl)silyl)oxy)octyl)oxy)hexyl)-13-heptyl-15,15-dimethyl-12,14-dioxa-5-aza-15-silatricosan-1-ol]
EE (%) [1]: 96%
Transfection* (Method A = 100 ng mRNA) (HeLa cells): 129513

CCCCCCCCCC(OCCCCCCN(CCCCO)CCCCCCOC(CCCCCCCCC)O[Si](C)(C)CCCCCC)O[Si](C)(C)CCCCCC (stereo not drawn) [Example 104, 5-(6-((1-((hexyldimethylsilyl)oxy)decyl)oxy)hexyl)-15,15-dimethyl-13-nonyl-12,14-dioxa-5-aza-15-silahenicosan-1-ol]
EE (%) [1]: 96%
Transfection* (Method A = 100 ng mRNA) (HeLa cells): 27631.5

CCCCCCCCOC(CCCCCN(CCCCO)CCCCCC(OCCCCCCCC)O[Si](C)(C)O[Si](C)(C)CCCCCCCC)O[Si](C)(C)O[Si](C)(C)CCCCCCCC (stereo not drawn) [Example 107, 4-(bis(6-(octyloxy)-6-((1,1,3,3-tetramethyl-3-octyldisiloxaneyl)oxy)hexyl)amino)butan-1-ol]
EE (%) [1]: 96%
Transfection* (Method A = 100 ng mRNA) (HeLa cells): 3677.5

CCCCCCCC[Si](C)(C)O[Si](C)(C)OC(CCCCCCC)OCCCCCCN(CCCCO)CCCCCCOC(CCCCCCC)O[Si](C)(C)O[Si](C)(C)CCCCCCCC (stereo not drawn) [Example 108, 13-heptyl-15,15,17,17-tetramethyl-5-(6-((1-((1,1,3,3-tetramethyl-3-octyldisiloxaneyl)oxy)octyl)oxy)hexyl)-12,14,16-trioxa-5-aza-15,17-disilapentacosan-1-ol]
EE (%) [1]: 94%
Transfection* (Method A = 100 ng mRNA) (HeLa cells): 7926

CCCCCCCCOC(CCCCCCC)O[Si](C)(C)CCCCCCN(CCCCO)CCCCCC[Si](C)(C)OC(CCCCCCC)OCCCCCCCC (stereo not drawn) [Example 113, 5-(6-(dimethyl((1-(octyloxy)octyl)oxy)silyl)hexyl)-14-heptyl-12,12-dimethyl-13,15-dioxa-5-aza-12-silatricosan-1-ol]
EE (%) [1]: 94%
Transfection* (Method A = 100 ng mRNA) (HeLa cells): 200295

CCCCCCCCSC(CCCCCCC)O[Si](C)(C)OCCCCCCN(CCCCO)CCCCCCO[Si](C)(C)OC(CCCCCCC)SCCCCCCCC (stereo not drawn) [Example 115, 15-heptyl-5-(10-heptyl-8,8-dimethyl-7,9-dioxa-11-thia-8-silanonadecyl)-13,13-dimethyl-12,14-dioxa-16-thia-5-aza-13-silatetracosan-1-ol]
EE (%) [1]: 94%
Transfection* (Method A = 100 ng mRNA) (HeLa cells): 1135215

CCCCCCCCOC(CCCCCN(CCCCCC(OCCCCCCCC)O[Si](C)(C)CCCCCCCC)CCC1CCCN1C)O[Si](C)(C)CCCCCCCC (stereo not drawn) [Example 116, 6-((dimethyl(octyl)silyl)oxy)-N-(6-((dimethyl(octyl)silyl)oxy)-6-(octyloxy)hexyl)-N-(2-(1-methylpyrrolidin-2-yl)ethyl)-6-(octyloxy)hexan-1-amine]
EE (%) [1]: 96%
Transfection* (Method A = 100 ng mRNA) (HeLa cells): 118987

CCCCCCCCOC(CCCCCN(CCCCCC(OCCCCCCCC)O[Si](C)(C)O[Si](C)(C)CCCCCCCC)CCC1CCCN1C)O[Si](C)(C)O[Si](C)(C)CCCCCCCC (stereo not drawn) [Example 118, N-(2-(1-methylpyrrolidin-2-yl)ethyl)-6-(octyloxy)-N-(6-(octyloxy)-6-((1,1,3,3-tetramethyl-3-octyldisiloxaneyl)oxy)hexyl)-6-((1,1,3,3-tetramethyl-3-octyldisiloxaneyl)oxy)hexan-1-amine]
EE (%) [1]: 98%
Transfection* (Method A = 100 ng mRNA) (HeLa cells): 57119.5

CCCCCCCC[Si](C)(C)OC(CCCCCCC)OCCCCCCN(CCCCCCOC(CCCCCCC)O[Si](C)(C)CCCCCCCC)CCC1CCCN1C (stereo not drawn) [Example 120, 6-((1-((dimethyl(octyl)silyl)oxy)octyl)oxy)-N-(6-((1-((dimethyl(octyl)silyl)oxy)octyl)oxy)hexyl)-N-(2-(1-methylpyrrolidin-2-yl)ethyl)hexan-1-amine]
EE (%) [1]: 98%
Transfection* (Method A = 100 ng mRNA) (HeLa cells): 469598.5

CCCCCCCCO[Si](C)(C)OC(CCCCCCC)OCCCCCCN(CCCCCCOC(CCCCCCC)O[Si](C)(C)OCCCCCCCC)CCC1CCCN1C (stereo not drawn) [Example 121, 8-heptyl-N-(8-heptyl-10,10-dimethyl-7,9,11-trioxa-10-silanonadecyl)-10,10-dimethyl-N-(2-(1-methylpyrrolidin-2-yl)ethyl)-7,9,11-trioxa-10-silanonadecan-1-amine]
EE (%) [1]: 98%
Transfection* (Method A = 100 ng mRNA) (HeLa cells): 80788.5

CCCCCCCCOC(CCCCCN(CCCCO)CCCCCCOC(=O)C(CCCCCC)CCCCCCCC)O[Si](C)(C)CCCCCCCC (stereo not drawn) [Example 128, 6-((6-((dimethyl(octyl)silyl)oxy)-6-(octyloxy)hexyl)(4-hydroxybutyl)amino)hexyl 2-hexyldecanoate]
EE (%) [1]: 97%
Transfection* (Method A = 100 ng mRNA) (HeLa cells): 647195.5

CCCCCCCCC(CCCCCC)C(=O)OCCCCCCN(CCCCO)CCCCCCOC(CCCCCCC)O[Si](C)(C)CCCCCCCC (stereo not drawn) [Example 129, 15-heptyl-7-(4-hydroxybutyl)-17,17-dimethyl-14,16-dioxa-7-aza-17-silapentacosyl 2-hexyldecanoate]
EE (%) [1]: 96%
Transfection* (Method A = 100 ng mRNA) (HeLa cells): 962783

CCCCCCCCOC(CCCCCN(CCCCO)CCCCCCOC(=O)C(CCCCCC)CCCCCCCC)O[Si](C)(C)OCCCCCCCC (stereo not drawn) [Example 130, 7-(4-hydroxybutyl)-15,15-dimethyl-13-(octyloxy)-14,16-dioxa-7-aza-15-silatetracosyl 2-hexyldecanoate]
EE (%) [1]: 90%
Transfection* (Method A = 100 ng mRNA) (HeLa cells): 428552

CCCCCCCCO[Si](C)(C)OC(CCCCCCC)OCCCCCCN(CCCCO)CCCCCCOC(=O)C(CCCCCC)CCCCCCCC (stereo not drawn) [Example 131, 15-heptyl-7-(4-hydroxybutyl)-17,17-dimethyl-14,16,18-trioxa-7-aza-17-silahexacosyl 2-hexyldecanoate]
EE (%) [1]: 95%
Transfection* (Method A = 100 ng mRNA) (HeLa cells): 951145

Source: patent publication US20260008793A1, “IONIZABLE CATIONIC LIPIDS INCORPORATING SILICON” (ALDEXCHEM KFT., priority 2022, published 2026)
